The target of data set [1] is human DNA polymerases α and β and human mitochondrial DNA polymerase γ. Put plainly: Human DNA polymerase inhibition assays (summary for α, β, γ). The format is biochemical. To be noted: read-out: IC50 values against human DNA polymerases tested. As for the experimental part:
The activities of human DNA polymerases α, β, and γ were measured in radiolabeled nucleotide incorporation assays. TP was prepared as a 10-point titration with 3-fold serial dilution in water. Reaction buffers for the DNA polymerase α and β assays both contained 20 mM Tris pH 7.5, 10 mM MgCl2, 50 μM EDTA, 200 μg/mL bovine serum albumin (BSA), 2 mM dithiothreitol (DTT), 1.6 μM each of dNTP (dATP, dCTP, dGTP, and dTTP), 20 μCi/mL [α33P]dATP, 0.1 mg/mL gapped activated fish sperm DNA template, test compound, and 0.005 U/μL DNA polymerase α or 0.0025 U/μL DNA polymerase β. The reaction buffer for DNA polymerase γ contained 20 mM Tris pH 8, 10 mM MgCl2, 50 mM KCl, 100 μg/mL BSA, 2 mM β-mercaptoethanol, 10 μM of each dNTP (dATP, dCTP, dGTP, and dTTP), 20 μCi/mL [α33P]dATP, 0.04 mg/mL gapped activated fish sperm DNA template, test compound, and 0.0003 μg/μL DNA polymerase γ. The 50-μL reactions were incubated at room temperature for 30 min (for β and γ) or 90 min (for α) before terminating with the addition of 50 μL 500 mM EDTA. The reaction mixtures were transferred to a Millipore DE81 filter plate (EMD Millipore; Hayward, CA), washed with 0.5 M sodium phosphate pH 7.0, and dried. After addition of 40 μL scintillant to each well, the incorporation of labeled dATP was determined with a microplate counter (TopCount NXT HTS; PerkinElmer, Shelton, CA, USA).

The next data set concerns the target T1, HIV-1 RT (Human immunodeficiency virus type 1 group M subtype B, UniProt P04585).
T1 construct: Full-length WT RT protein was expressed in Escherichia coli BL21(DE3) cells; made in house; host or cells: Escherichia coli BL21(DE3)
Put plainly: HIV-1 RT biochemical (ECL) assay. To be noted: purified recombinant RT, n = 8; read-out: IC50, RNA-dependent DNA polymerization. On the procedure: Full-length WT RT protein was expressed in Escherichia coli BL21(DE3) cells and purified as described previously. The electrochemiluminescence (ECL) RT biochemical assay was performed based on the previously described protocol.
Briefly, the heterodimeric nucleic acid substrate used in the HIV-1 RT polymerase reactions was generated by annealing biotinylated DNA primer to a 500-nucleotide RNA template. The HIV-1 RT enzyme (final concentration of 50 pM) was combined with an inhibitor or DMSO (10% DMSO in the final reaction mixture) in assay buffer containing 62.5 mM Tris-HCl, pH 7.8, 1.25 mM dithiothreitol, 7.5 mM MgCl2, 100 mM KCl, 0.03% 3-[(3-cholamidopropyl)-dimethylammonio]-1-propanesulfonate, and 0.125 mM ethylene glycol tetraacetic acid). This mixture was preincubated for 30 min at room temperature in microtiter plates. The polymerization reaction was initiated by the addition of template:primer substrate (final concentration, 16.6 nM), and dNTPs (final concentrations were 2 μM for deoxycytidine triphosphate [dCTP], deoxyguanosine triphosphate [dGTP], and dATP and 66.6 nM for ruthenylated deoxyuridine triphosphate [Ru-dUTP]). […] The mixtures were incubated at room temperature for 60 min prior to the quantification of the reaction product via an ECL 6000 imager instrument. […]

Data set [2] in a line: PK in rhesus monkeys (plasma). In kind it is in vivo. On the procedure: For the IV arm of the study, MK-8527 was administered as a bolus via the cephalic vein at 0.5 mg/kg in 30% Captisol (Ligand Pharmaceuticals, Lawrence, KS, USA). […] After the 6-h time point, they were returned to their cages and placed in a bleed chair for the subsequent time points. No anesthesia was used. As enrichment, animals were pair housed with conspecifics in cages with […]. […] Animals were fed certified primate diet (LabDiet 5048) and given a vitamin C supplement daily. In addition, animals received rotational fruit and vegetables as well as a foraging mix daily. All blood samples were centrifuged at 2,000g for 10 min, and the supernatant plasma samples were removed and stored at -70 °C until further analysis. The concentrations of MK-8527 in plasma were determined by LC-MS/MS assays following a protein precipitation step. Aliquots (50 μL) of plasma were precipitated by addition of 150 μL of acetonitrile solution-containing internal standard (IS), followed by centrifugation at 3,000 rpm for 10 min. A 75-μL aliquot of the supernatant was transferred into a 96-well plate, and 5 μL of each sample was used for analysis. LC-MS/MS analysis was performed on a Transcend LC system with HTS PAL CTC autosampler (Thermo Fisher Scientific, Waltham, MA, USA) interfaced to an API-5000 mass spectrometer using the turbo ion spray interface (Sciex, Framingham, MA, USA). Separation of MK-8527 was achieved on an Xselect HSS XP T3 column (50 × 2.1 mm, 2.5 μm; […] The chromatography for plasma samples was run using gradient elution as follows: the column was equilibrated with 100% A. […] The total run time was 4.15 min. Quantification was done by monitoring the transition of m/z 309 to m/z 169 or 133 for MK-8527. The method was linear across a concentration range of 2-10,000 ng/mL in plasma.

These results are taken from publication PMC12380353, “MK-8527 is a novel inhibitor of HIV-1 reverse transcriptase translocation with potential for extended-duration dosing” (PLOS Biology, 2025).

Where “and” joins values, the source holds several entries; their conditions need not be identical. Equal entries are not always repeated. Where two headings read alike, the source gives them in different places.

As for `C#C[C@]1(COP(=O)(O)OP(=O)(O)OP(=O)(O)O)O[C@@H](n2ccc3c(N)nc(Cl)nc32)C[C@@H]1O` [MK-8527-TP], the results for the IC50 (in data set [1]; on HIV-1 RT) were no less than 95000 nM and 813 ± 238 nM, respectively.

For the molecule `C#C[C@]1(CO)O[C@@H](n2ccc3c(N)nc(Cl)nc32)C[C@@H]1O` [Compound 12, (2R,3S,5R)-5-(4-amino-2-chloro-7H-pyrrolo[2,3-d]pyrimidin-7-yl)-2-ethynyl-2-(hydroxymethyl)tetrahydrofuran-3-ol], the concentration at 72 h in data set [2] (monkeys, oral 50 mg/kg, 0.25 hr, listed as MK-8527, 50 mg/kg, read-out: Concentration in plasma, individual subjects) is 7.22 µM and 1.93 µM and 8.67 µM; in data set [2] (monkeys, oral 50 mg/kg, 0.5 hr, listed as MK-8527, 50 mg/kg, read-out: Concentration in plasma, individual subjects), 11.00 µM and 4.12 µM and 11.10 µM; in data set [2] (monkeys, oral 50 mg/kg, 1 hr, listed as MK-8527, 50 mg/kg, read-out: Concentration in plasma, individual subjects) it was 29.80 µM and 7.40 µM and 20.20 µM; in data set [2] (monkeys, oral 50 mg/kg, 2 hr, listed as MK-8527, 50 mg/kg, read-out: Concentration in plasma, individual subjects), 30.50 µM and 11.00 µM and 27.80 µM; in data set [2] (monkeys, oral 50 mg/kg, 4 hr, listed as MK-8527, 50 mg/kg, read-out: Concentration in plasma, individual subjects) it was 15.20 µM and 15.40 µM; in data set [2] (monkeys, oral 50 mg/kg, 6 hr, listed as MK-8527, 50 mg/kg, read-out: Concentration in plasma, individual subjects), 14.30 µM and 9.31 µM. The concentration at 72 h in data set [2] (monkeys, oral 50 mg/kg, 24 hr, listed as MK-8527, 50 mg/kg, read-out: Concentration in plasma, individual subjects) was 1.81 µM and 1.27 µM; in data set [2] (monkeys, oral 50 mg/kg, 30 hr, listed as MK-8527, 50 mg/kg, read-out: Concentration in plasma, individual subjects), 0.81 µM and 0.58 µM; in data set [2] (monkeys, oral 50 mg/kg, 48 hr, listed as MK-8527, 50 mg/kg, read-out: Concentration in plasma, individual subjects), 0.31 µM and 0.26 µM and 0.13 µM; in data set [2] (monkeys, oral 50 mg/kg, 72 hr, listed as MK-8527, 50 mg/kg, read-out: Concentration in plasma, individual subjects) it was 0.07 µM and 0.05 µM; in data set [2] (monkeys, oral 50 mg/kg, 168 hr, listed as MK-8527, 50 mg/kg, read-out: Concentration in plasma, individual subjects), 0.0143 µM and 0.0113 µM and 0.00651 µM; in data set [2] (rhesus monkey, plasma, po, 50 mg/kg, monkeys, oral 50 mg/kg, 72 hr, read-out: Arithmetic Mean Concentration in plasma), 0.07 µM. Further, in data set [2] (rhesus monkey, plasma, po, 50 mg/kg, monkeys, oral 50 mg/kg, 72 hr, read-out: Concentration in plasma, individual subjects), the concentration at 72 h came to 0.09 µM. Besides, in data set [2] (rhesus monkey, plasma, iv, 0.5 mg/kg, monkey, plasma, IV 0.5 mg/kg, read-out: t½ (converted)), the half-life was roughly 7 h. The concentration at 0.25 h in data set [2] (rhesus monkey, plasma, po, 50 mg/kg, monkeys, oral 50 mg/kg, 0.25 hr, read-out: Arithmetic Mean Concentration in plasma) is 4.94 µM. Moreover, the concentration at 0.5 h in data set [2] (rhesus monkey, plasma, po, 50 mg/kg, monkeys, oral 50 mg/kg, 0.5 hr, read-out: Arithmetic Mean Concentration in plasma) was found to be 7.95 µM. Moreover, the concentration at 1 h in data set [2] (rhesus monkey, plasma, po, 50 mg/kg, monkeys, oral 50 mg/kg, 1 hr, read-out: Arithmetic Mean Concentration in plasma) was determined as 16.4 µM. The concentration at 30 h in data set [2] (rhesus monkey, plasma, po, 50 mg/kg, monkeys, oral 50 mg/kg, 30 hr, read-out: Arithmetic Mean Concentration in plasma) is 0.79 µM; in data set [2] (rhesus monkey, plasma, po, 50 mg/kg, monkeys, oral 50 mg/kg, 30 hr, read-out: Concentration in plasma, individual subjects), 1.04 µM. In data set [2] (rhesus monkey, plasma, po, 50 mg/kg, monkeys, oral 50 mg/kg, 48 hr, read-out: Arithmetic Mean Concentration in plasma), the concentration at 48 h amounted to 0.22 µM. Besides, in data set [2] (rhesus monkey, plasma, po, 50 mg/kg, monkeys, oral 50 mg/kg, 168 hr, read-out: Arithmetic Mean Concentration in plasma), the concentration at 168 h worked out at 0.01 µM. In addition, the clearance in data set [2] (rhesus monkey, plasma, monkey, IV 0.5 mg/kg, read-out: CLp) is 12.6 ± 3.3 mL/min/kg. In addition, the Vd in data set [2] (rhesus monkey, plasma, monkey, IV 0.5 mg/kg, read-out: Vdss) came to 4.4 ± 0.8 L/kg. In data set [2] (rhesus monkey, plasma, monkey, oral 1 mg/kg), this molecule showed a bioavailability of 100%. The concentration at 2 h in data set [2] (rhesus, rhesus monkey, plasma, po, 50 mg/kg, monkeys, oral 50 mg/kg, 2 hr, read-out: Arithmetic Mean Concentration in plasma) came to 21.1 µM. Moreover, the concentration at 4 h in data set [2] (rhesus, rhesus monkey, plasma, po, 50 mg/kg, monkeys, oral 50 mg/kg, 4 hr, read-out: Arithmetic Mean Concentration in plasma) worked out at 15.8 µM; in data set [2] (rhesus, rhesus monkey, plasma, po, 50 mg/kg, monkeys, oral 50 mg/kg, 4 hr, read-out: Concentration in plasma, individual subjects), 16.9 µM. Also, the concentration at 6 h is 11 µM in data set [2] (rhesus, rhesus monkey, plasma, po, 50 mg/kg, monkeys, oral 50 mg/kg, 6 hr, read-out: Arithmetic Mean Concentration in plasma) and 10.1 µM in data set [2] (rhesus, rhesus monkey, plasma, po, 50 mg/kg, monkeys, oral 50 mg/kg, 6 hr, read-out: Concentration in plasma, individual subjects). Further, the concentration at 24 h turned out to be 1.75 µM in data set [2] (rhesus, rhesus monkey, plasma, po, 50 mg/kg, monkeys, oral 50 mg/kg, 24 hr, read-out: Arithmetic Mean Concentration in plasma) and 2.34 µM in data set [2] (rhesus, rhesus monkey, plasma, po, 50 mg/kg, monkeys, oral 50 mg/kg, 24 hr, read-out: Concentration in plasma, individual subjects).
